Experimental data from US20090012054A1, “Cephem Compounds and Use as Antimicrobial Agents” (priority 2006, published 2009).
Values after ≈ are worked out from the molar mass of the structure shown. Where two headings read alike, the source gives them in different places.

Legend:
Assay in all cases: In vitro antibacterial activity (MIC), two-fold agar-plate dilution method
Assay type in all cases: cell-based
[1] = tested on: Pseudomonas aeruginosa FP 1380; conditions: Pseudomonas aeruginosa FP 1380, AmpC β-lactamase overproduced strain, HI-agar, 37° C. for 20 hours
Protocol: (§1) Now in order to show the utility of the object compound [I], the test data on MIC (minimal inhibitory concentration) of a representative compound of this invention are shown in the following.
(§2) In vitro antibacterial activity was determined by the two-fold agar-plate dilution method as described below.
(§3) One loopful of an overnight culture of each test strain in Trypticase-soy broth (10^6 viable cells per ml) was streaked on heart infusion agar (HI-agar) containing graded concentrations of representative test compound, and the minimal inhibitory concentration (MIC) was expressed in μg/ml after incubation at 37° C. for 20 hours.

[2] = tested on: Pseudomonas aeruginosa 19136; conditions: Pseudomonas aeruginosa 19136, metallo β-lactamase producing strain, HI-agar, 37° C. for 20 hours
Protocol: as §1, §2, §3

[3] = tested on: Pseudomonas aeruginosa 22027; conditions: Pseudomonas aeruginosa 22027, metallo β-lactamase producing strain, HI-agar, 37° C. for 20 hours
Protocol: as §1, §2, §3

Compound	MIC ([1]; FP1380, read-out: MIC) [µg/mL]	MIC ([2]; read-out: MIC) [µg/mL]	MIC ([3]; read-out: MIC) [µg/mL]	MIC [1] [µg/mL]	MIC [2] [µg/mL]	MIC [3] [µg/mL]
C[C@H]1[C@H](NC(=O)/C(=N\OC(C)(C)C(=O)O)c2csc(N)n2)C(=O)N1S(=O)(=O)O [Aztreonam, reference compound]	64 (≈ 147 µM)	4 (≈ 9.19 µM)	32 (≈ 73.5 µM)			
CC(C)(O/N=C(\C(=O)N[C@@H]1C(=O)N2C(C(=O)O)=C(C[n+]3cc(N(CCN)C(=N)N)c4n3CCCN4)CS[C@H]12)c1nsc(N)n1)C(=O)O.O=S(=O)([O-])O [Compound (B), 7β-[(Z)-2-(5-amino-1,2,4-thiadiazol-3-yl)-2-(1-carboxy-1-methylethoxyimino)acetamido]-3-{3-[1-(2-aminoethyl)guanidino]-4,5,6,7-tetrahydro-1-(pyrazolo[1,5-a]pyrimidinio)}methyl-3-cephem-4-carboxylate sulfate]				0.5	2	8
7β-[(Z)-2-(5-amino-1,2,4-thiadiazol-3-yl)-2-(1-carboxy-1-methylethoxyimino)acetamido]-3-{3-[1-(3-aminopropyl)guanidino]-2,3-dihydro-5-(1H-imidazo[1,2-b]pyrazolio)}methyl-3-cephem-4-carboxylate sulfate [Compound (A)]				0.5	2	8
